The Kinase Knowledgebase extract (Sharma et al. 2016)

molecular target: PIK3CA (human) (UniProt P42336); assay: Inhibition of PIK3CA Kinase Activity
Sequence (P42336 whole entry, looked up): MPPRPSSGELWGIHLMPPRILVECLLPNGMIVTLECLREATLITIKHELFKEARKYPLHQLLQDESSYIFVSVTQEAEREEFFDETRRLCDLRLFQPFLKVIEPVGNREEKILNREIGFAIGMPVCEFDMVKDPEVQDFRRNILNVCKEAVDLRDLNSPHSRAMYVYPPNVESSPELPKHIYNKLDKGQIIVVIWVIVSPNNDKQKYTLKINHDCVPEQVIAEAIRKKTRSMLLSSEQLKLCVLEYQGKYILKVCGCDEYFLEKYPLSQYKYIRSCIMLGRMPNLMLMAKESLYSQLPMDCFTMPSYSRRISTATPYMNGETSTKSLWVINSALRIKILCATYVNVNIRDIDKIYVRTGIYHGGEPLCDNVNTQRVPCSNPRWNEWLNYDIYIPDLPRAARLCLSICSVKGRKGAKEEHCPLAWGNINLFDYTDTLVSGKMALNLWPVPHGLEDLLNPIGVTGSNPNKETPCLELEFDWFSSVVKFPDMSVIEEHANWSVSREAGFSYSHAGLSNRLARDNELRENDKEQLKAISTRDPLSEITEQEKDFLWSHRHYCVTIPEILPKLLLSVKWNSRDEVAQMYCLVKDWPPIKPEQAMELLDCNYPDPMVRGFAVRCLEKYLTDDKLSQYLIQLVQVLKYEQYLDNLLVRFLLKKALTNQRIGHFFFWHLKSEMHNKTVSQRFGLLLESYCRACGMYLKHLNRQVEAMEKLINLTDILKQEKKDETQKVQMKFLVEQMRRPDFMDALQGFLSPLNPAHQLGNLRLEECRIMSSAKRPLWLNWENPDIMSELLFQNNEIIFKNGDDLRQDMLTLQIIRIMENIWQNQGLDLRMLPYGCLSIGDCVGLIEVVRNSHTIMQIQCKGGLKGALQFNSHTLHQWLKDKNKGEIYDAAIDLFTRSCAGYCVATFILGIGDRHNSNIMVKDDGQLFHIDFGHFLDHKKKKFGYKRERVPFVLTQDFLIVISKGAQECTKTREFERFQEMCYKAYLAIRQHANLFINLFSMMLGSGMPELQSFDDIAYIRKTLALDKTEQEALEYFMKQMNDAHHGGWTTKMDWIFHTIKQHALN

SMILES	IC50 [nM]
CC1(C)CCc2ncnc(N3CCOc4ccc(-c5cnc(N)c(S(=O)(=O)N6CCC(N)CC6)c5)cc4C3)c2C1	10 to 50
Cc1nc2cc(-c3ccc4c(c3)CN(c3nc(C5CCCN5)nc5c3CC(C)(C)CC5)CCO4)cnc2[nH]1 (stereo not given)	10 to 50
Cc1ncnc(N2CCOc3ccc(-c4ccc5sc(N)nc5n4)cc3C2)c1Cc1ccc(F)cc1	10 to 50
CC1(C)CCc2ncnc(N3CCOc4ccc(-c5cnc(N)c(S(=O)(=O)NC[C@H]6CCNC6)c5)cc4C3)c2C1	10 to 50
CCNc1nc2ccc(-c3ccc4c(c3)CN(c3nc(CC)nc5ccccc35)CCO4)cc2[nH]1	10 to 50
CC(O)CNS(=O)(=O)c1cc(-c2ccc3c(c2)CN(c2ncnc4c2CC(C)(C)CC4)CCO3)cnc1N (stereo not given)	10 to 50
COc1ccc2ncnc(N3CCOc4ccc(-c5cnc6nc(N)[nH]c6c5)cc4C3)c2c1	≤ 10
Cc1nc2cc(-c3ccc4c(c3)CN(c3nc([C@H]5CCCN5)nc5c3CC(C)(C)CC5)CCO4)ccc2[nH]1	10 to 50
Cc1ncnc(N2CCOc3ccc(-c4ccc5nc(N)ncc5c4)cc3C2)c1Cc1ccc(F)cc1	250 to 1000
CC1(C)CCc2ncnc(N3CCOc4ccc(-c5cnc(N6CC[C@H](N)C6)c(S(=O)(=O)N6CC[C@H](N)C6)c5)cc4C3)c2C1	250 to 1000
Cc1nc2ccc(-c3ccc4c(c3)CN(c3ncnc5sccc35)CCO4)cc2[nH]1	250 to 1000
Cc1nc2cc(-c3ccc4c(c3)CN(c3nc(C(C)N(C)C)nc5c3CC(C)(C)CC5)CCO4)cnc2[nH]1 (stereo not given)	10 to 50
Cc1nc(CN(C)C)nc(N2CCOc3ccc(-c4cnc5sc(N)nc5c4)cc3C2)c1Br	10 to 50
CC1(C)CCc2ncnc(N3CCOc4ccc(-c5cnc(N)c(S(=O)(=O)NCCF)c5)cc4C3)c2C1	≤ 10
Cc1ncnc(N2CCOc3ccc(-c4ccc(-c5ncc[nH]5)cc4)cc3C2)c1Cc1ccc(F)cc1	≤ 10
CC1(C)CCc2ncnc(N3CCOc4ccc(-c5cnc(N)c(S(=O)(=O)NC[C@H]6CCCN6)c5)cc4C3)c2C1	50 to 250
Cc1nc2ccc(-c3ccc4c(c3)CN(c3ncnc(C)c3Cc3ccc(F)cc3)CCO4)cc2[nH]1	10 to 50
COc1cc2ncnc(N3CCOc4ccc(-c5cnc6nc(N)[nH]c6c5)cc4C3)c2cc1OC	≤ 10
CC1(C)CCc2ncnc(N3CCOc4ccc(-c5cnc(N)c(S(=O)(=O)NC6CCNCC6)c5)cc4C3)c2C1	50 to 250
COc1ccc2c(N3CCOc4ccc(-c5cnc6[nH]c(C)nc6c5)cc4C3)nc(C)nc2c1	≤ 10
Cc1nc2ncc(-c3ccc4c(c3)CN(c3nc(CNCC(C)C)nc5c3CC(C)(C)CC5)CCO4)cc2[nH]1	10 to 50
COc1cc2ncnc(N3CCOc4ccc(-c5ccc6nc(C)[nH]c6c5)cc4C3)c2cc1I	10 to 50
Cc1nc2cc(-c3ccc4c(c3)CN(c3nc(CCN5CCCC5)nc5c3CC(C)(C)CC5)CCO4)cnc2[nH]1	10 to 50
Cc1nc2ncc(-c3ccc4c(c3)CN(c3nc(CN(C)C)nc(C)c3CC3CC3)CCO4)cc2[nH]1	≤ 10

SMILES	IC50 [nM]
CCc1nc2ncc(-c3ccc4c(c3)CN(c3nc(C)nc5c3CC(C)(C)CC5)CCO4)cc2[nH]1	10 to 50
CC(N)CNS(=O)(=O)c1cc(-c2ccc3c(c2)CN(c2ncnc4c2CC(C)(C)CC4)CCO3)cnc1N (stereo not given)	50 to 250
Cc1nc2ccc(-c3ccc4c(c3)CN(c3ncnc5ccc(F)cc35)CCO4)cc2[nH]1	50 to 250
C=CCc1c(C)nc(CN(C)C)nc1N1CCOc2ccc(-c3ccc4nc(C)[nH]c4c3)cc2C1	≤ 10
CC(C)(O)CNS(=O)(=O)c1cc(-c2ccc3c(c2)CN(c2ncnc4c2CC(C)(C)CC4)CCO3)cnc1N	10 to 50
COc1ccc2c(N3CCOc4ccc(-c5ccc6c(c5)CC(=O)N6)cc4C3)nc(C)nc2c1	250 to 1000
Cc1nc2ncc(-c3ccc4c(c3)CN(c3nc(CNC(C)C)nc5c3CC(C)(C)CC5)CCO4)cc2[nH]1	≤ 10
Cc1nc2ccc(-c3ccc4c(c3)CN(c3cc(-c5ccccc5)nc5ccccc35)CCO4)cc2[nH]1	50 to 250
COC1Cc2nc(CN(C)C)nc(N3CCOc4ccc(-c5ccc6scnc6c5)cc4C3)c2CC1(C)C (stereo not given)	250 to 1000
CC1(C)CCc2ncnc(N3CCOc4ccc(-c5cnc(N)c(S(=O)(=O)N6CC7CNCC7C6)c5)cc4C3)c2C1 (stereo not given)	50 to 250
Cc1nc(CNCCF)nc(N2CCOc3ccc(-c4cnc5sc(N)nc5c4)cc3C2)c1C(C)C	≤ 10
Cc1ncnc(N2CCOc3ccc(-c4cnc5sc(N)nc5c4)cc3C2)c1Cc1ccc(F)cc1	≤ 10
CCNc1nc2ccc(-c3ccc4c(c3)CN(c3ccnc5ccc(OC)cc35)CCO4)cc2[nH]1	10 to 50
CCCNC(=O)c1ccc(-c2ccc3c(c2)CN(c2ccnc4ccccc24)CCO3)cc1	250 to 1000
CCNc1nc2ccc(-c3ccc4c(c3)CN(c3ccnc5cc(OC)c(OC)cc35)CCO4)cc2[nH]1	10 to 50
CC[C@H]1CCc2c(ncnc2N2CCOc3ccc(-c4cnc(N)c(S(=O)(=O)N5C[C@@H]6C[C@H]5CN6)c4)cc3C2)C1	10 to 50
Cc1nc(CN(C)C)nc(N2CCOc3ccc(-c4ccc5[nH]c(C(F)F)nc5c4)cc3C2)c1C(C)C	10 to 50
Cc1nc2cc(-c3ccc4c(c3)CN(c3nc(CN(C)C)nc(C)c3CC(C)C)CCO4)ccc2[nH]1	250 to 1000
CN(C)S(=O)(=O)c1cc(-c2ccc3c(c2)CN(c2ncnc4c2CC(C)(C)CC4)CCO3)cnc1N	10 to 50
Cc1nc2cc(-c3ccc4c(c3)CN(c3nc(N)nc(C)c3Cc3ccc(F)cc3)CCO4)cnc2[nH]1	≤ 10
Cc1nc2cc(-c3ccc4c(c3)CN(c3nc([C@@H]5CCCN5)nc5c3CC(C)(C)CC5)CCO4)cnc2[nH]1	10 to 50
COc1ccc2c(N3CCOc4ccc(-c5ccc6nc(C)[nH]c6c5)cc4C3)nc(C)nc2c1	10 to 50
Cc1nc2cc(-c3ccc4c(c3)CN(c3nc(N)nc(C)c3Cc3ccc(F)cc3)CCO4)ccc2[nH]1	≤ 10
CC1(C)CCc2ncnc(N3CCOc4ccc(-c5cnc(N)c(S(=O)(=O)NCC6CNC6)c5)cc4C3)c2C1	10 to 50

Results, then the compound that gave them:

IC50 [nM]	SMILES
50 to 250	Cc1nc2ccc(-c3ccc4c(c3)CN(c3ncnc5ccc(I)cc35)CCO4)cc2[nH]1
≤ 10	COc1ccc2c(N3CCOc4ccc(-c5cnc6sc(N)nc6c5)cc4C3)nc(CN(C)C)nc2c1
10 to 50	Cc1nc2c(F)c(-c3ccc4c(c3)CN(c3nc(CN(C)C)nc5c3CC(C)(C)CC5)CCO4)ccc2[nH]1
10 to 50	CCNS(=O)(=O)c1cc(-c2ccc3c(c2)CN(c2ncnc4c2CC(C)(C)CC4)CCO3)cnc1N
≤ 10	CCNc1nc2ccc(-c3ccc4c(c3)CN(c3nc(CC)nc5cc(OC)ccc35)CCO4)cc2[nH]1
10 to 50	Cc1nc(N2CCOc3ccc(-c4ccc5nc(C)[nH]c5c4)cc3C2)c2ccccc2n1
50 to 250	O=C(CCCN1CCCCC1)Nc1nc2ccc(-c3ccc4c(c3)CN(c3ccnc5ccccc35)CCO4)cc2[nH]1
10 to 50	CC1(C)CCc2ncnc(N3CCOc4ccc(-c5cnc(N)c(S(=O)(=O)N6CC(C)(N)C6)c5)cc4C3)c2C1
10 to 50	Cc1nc(CN(C)C)nc(N2CCOc3ccc(-c4cnc5sc(N)nc5c4)cc3C2)c1Cl
250 to 1000	Cc1c(N2CCOc3ccc(-c4cnc5nc(C6CC6)[nH]c5c4)cc3C2)ncnc1N(C)[C@@H](C)c1ccccc1
50 to 250	Cc1nc2ncc(-c3ccc4c(c3)CN(c3nc(-c5ccccn5)nc5c3CC(C)(C)CC5)CCO4)cc2[nH]1
50 to 250	CC1(C)CCc2ncnc(N3CCOc4ccc(-c5cnc(F)c(NS(C)(=O)=O)c5)cc4C3)c2C1
≤ 10	Cc1nc2ncc(-c3ccc4c(c3)CN(c3nc(CN(C)C(C)C)nc5c3CC(C)(C)CC5)CCO4)cc2[nH]1
10 to 50	Cc1nc2ccc(-c3ccc4c(c3)CN(c3ccnc(C)c3Cc3ccc(F)cc3)CCO4)cc2[nH]1
10 to 50	Cc1nc2ncc(-c3ccc4c(c3)CN(c3nc(CN5CC[C@H](F)C5)nc5c3CC(C)(C)CC5)CCO4)cc2[nH]1
10 to 50	Cc1nc2ncc(-c3ccc4c(c3)CN(c3nc(CNCCF)nc5c3CC(C)(C)CC5)CCO4)cc2[nH]1
≤ 10	COc1ccc2c(N3CCOc4ccc(-c5ccc6nc(C)[nH]c6c5)cc4C3)ncnc2c1
≤ 10	CCNc1nc2ncc(-c3ccc4c(c3)CN(c3ncnc5c3CC(C)(C)CC5)CCO4)cc2[nH]1
10 to 50	CC[C@H](C)NCc1nc2c(c(N3CCOc4ccc(-c5cnc6nc(C)[nH]c6c5)cc4C3)n1)CC(C)(C)CC2

IC50 [nM]	SMILES
50 to 250	CCOC(=O)c1nc(N2CCOc3ccc(-c4ccc5nc(C)[nH]c5c4)cc3C2)c2ccccc2n1
10 to 50	COc1cc2ncnc(N3CCOc4ccc(-c5ccc6nc(C)[nH]c6c5)cc4C3)c2cc1Cl
50 to 250	CC1(C)CCc2ncnc(N3CCOc4ccc(-c5cnc(N)c(S(=O)(=O)N6CCC(O)CC6)c5)cc4C3)c2C1
≤ 10	CC1(C)CCc2ncnc(N3CCOc4ccc(-c5cnc(Cl)c(NS(C)(=O)=O)c5)cc4C3)c2C1
≤ 10	Cc1nc2ncc(-c3ccc4c(c3)CN(c3nc(CN5CCCCC5)nc5c3CC(C)(C)CC5)CCO4)cc2[nH]1
50 to 250	CC(C)(N)CNS(=O)(=O)c1cc(-c2ccc3c(c2)CN(c2ncnc4c2CC(C)(C)CC4)CCO3)cnc1N
10 to 50	CNc1ncc(-c2ccc3c(c2)CN(c2ncnc4c2CC(C)(C)CC4)CCO3)cc1S(=O)(=O)NCCO
10 to 50	COC(=O)Nc1nc2ccc(-c3ccc4c(c3)CN(c3ncnc5cc(OC)c(OC)cc35)CCO4)cc2[nH]1
≤ 10	CCCc1c(C)nc(CN(C)C)nc1N1CCOc2ccc(-c3cnc4sc(N)nc4c3)cc2C1
10 to 50	CCNc1nc2ccc(-c3ccc4c(c3)CN(c3nc(C)nc5ccccc35)CCO4)cc2[nH]1
250 to 1000	CN(c1cc(-c2ccc3c(c2)CN(c2ncnc4c2CC(C)(C)CC4)CCO3)cnc1Cl)S(C)(=O)=O
10 to 50	Cc1ncnc(N2CCOc3ccc(-c4ccc(C(N)=O)cc4)cc3C2)c1Cc1ccc(F)cc1
≤ 10	COc1cc2nccc(N3CCOc4ccc(-c5cnc6nc(N)[nH]c6c5)cc4C3)c2cc1OC
50 to 250	CN(C)C1CN(S(=O)(=O)c2cc(-c3ccc4c(c3)CN(c3ncnc5c3CC(C)(C)CC5)CCO4)cnc2N)C1
10 to 50	COc1cccc(Cc2c(C)ncnc2N2CCOc3ccc(-c4ccc5nc(C)[nH]c5c4)cc3C2)c1
250 to 1000	Cc1nc2ccc(-c3ccc4c(c3)CN(c3ccnc(Nc5ccccc5)n3)CCO4)cc2[nH]1
50 to 250	CC1(C)CCc2ncnc(N3CCOc4ccc(-c5cnc(N)c(S(=O)(=O)NC(C)(C)CN)c5)cc4C3)c2C1
≤ 10	COc1ccc2c(N3CCOc4ccc(-c5cnc6nc(C)[nH]c6c5)cc4C3)nc(CN(C)C)nc2c1
